# In patent US5298491A, “Derivatives of endogenous mediators, their salts, method of preparation, applications and compositions in which they are present” (priority 1990, dated 1994):
# Legend:
# rat central receptors = assay: Labelling of rat brain sections with iodinated derivatives (autoradiography); conditions: 0.03 nM iodinated derivative; non-specific binding with 10^-5 M 5-HT
# Method: (§1) The protocol for preparing the brain sections is common to all the studies which follow. The animals are decapitated after anaesthesia with chloral hydrate (400 mg/kg of gross weight). The brains are quickly removed from the skull and frozen by immersion in isopentane cooled by liquid nitrogen. 20 μm sections, prepared in a cryostat at -20° C., are mounted on gelatin-coated slides and stored at -20° C.
# 5-HT1B sites = 5-HT1B sites (Rattus norvegicus, UniProt P28564); assay: Labelling of 5-HT1B structures of rat brain sections (autoradiography); format: binding
# Sequence of 5-HT1B sites (P28564 whole entry): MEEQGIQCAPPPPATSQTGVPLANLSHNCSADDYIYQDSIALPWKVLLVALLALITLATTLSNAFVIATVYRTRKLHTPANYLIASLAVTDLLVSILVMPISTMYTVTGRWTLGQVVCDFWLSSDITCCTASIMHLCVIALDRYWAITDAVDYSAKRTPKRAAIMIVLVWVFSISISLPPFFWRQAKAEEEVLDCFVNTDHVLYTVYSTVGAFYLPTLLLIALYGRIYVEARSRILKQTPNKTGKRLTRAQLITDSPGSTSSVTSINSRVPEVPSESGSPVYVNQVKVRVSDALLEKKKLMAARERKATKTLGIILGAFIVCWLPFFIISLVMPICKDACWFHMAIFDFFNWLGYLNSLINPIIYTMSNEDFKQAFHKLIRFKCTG
# Method: as §1
# (§2) The sections are preincubated for 1 hour at 4° C. in a Krebs solution (NaCl 118 mM; KCl 4.8 mm; CaCl2 1.2 mM; MgCl2 1.2 mM; Tris-HCl 15 mM, pH 7.4) in order to remove the endogenous ligands.
# (§3) The incubations take place for 60 minutes at 20° C. in a Krebs solution containing 10 μM pargyline, 5.7.10^-4 M ascorbic acid, 10 g/l of bovine serum albumin (fraction V, Sigma) and 0.03 nmol/l of the derivative S--CM-[^125 I]--R. The non-specific binding is determined on homothetic sections under the same conditions, but in the presence of 10^-5 M 5-HT.
# (§4) After incubation, the sections are rinsed twice for 1 min in distilled water and dried by a stream of hot air. The sections are affixed to a kilm (Amersham) for one week in the presence of standards ([^125 I] microscale, Amersham). The films are developed for 6 min with Kodak D19, rinsed and fixed with AL4 (Kodak). Quantitative analysis of the autoradiographs is performed with an image analysis system (Segu et al., op. cit.).
# This last structure is known for containing almost exclusively binding sites of the 5-HT1A type, whereas the others contain sites of the 5-HT1B type (Hoyer et al., Eur. J. Pharmacol., 118, 1985, P. 1-12). In the anterior region, the striatum (ST) is labelled: it contains especially 5-HT1B sites; the choroid plexus (Px), which contains 5-HT1c sites, is not labelled.
# 5-HT1A sites [1] = assay: Labelling of rat hippocampus (autoradiography); format: binding; conditions: 0.03 nM
# Method: as §1, §2, §3
# as §4, with “cit.). […]” for “cit.).”
# 5-HT1C sites [2] = assay: Labelling of rat choroid plexus (autoradiography); format: binding; conditions: 0.03 nM
# Method: as §1, §2, §3
# as §4, with “cit.). […]” for “cit.).”
# 5-HT1D sites [3] = assay: Labelling of 5-HT1D structures of guinea-pig brain sections (autoradiography); format: binding
# Method: as §1, §2, §3, §4
# In the central nervous system of the guinea-pig, the anatomical structures containing sites of the 5-HT1A type and the pharmacology of these sites are the same as in the rat. By contrast, the pharmacology of the sites contained in the substantia nigra of the guinea-pig is different from that of the sites of the same structure in the rat (Heuring and Peroutka, J. Neurosci., 7, 1987, p. 894-903). These sites are therefore denotedas 5-HT1D.
# 5-HT1A sites [4] = assay: Labelling of guinea-pig hippocampus (autoradiography); format: binding; conditions: 0.03 nM
# Method: as §1, §2, §3
# as §4, with “cit.). […]” for “cit.).”
# 5-HT1C sites [5] = assay: Labelling of guinea-pig choroid plexus (autoradiography); format: binding; conditions: 0.03 nM
# Method: as §1, §2, §3, §4
# 5-HT1D sites [6] = molecular target: T1, 5-HT1D sites (Macaca mulatta, UniProt F6SFA9); assay: Labelling of substantia nigra in monkey brain sections (autoradiography); format: binding, monkey (Macacca mulatta n.); conditions: for binding to / marker for 5-HT1D sites: conclusion
# T1 construct: The right hemisphere is cut out and frozen by isopentane cooled in liquid nitrogen; from tissue; host or cells: rhesus monkey brain sections (right hemisphere, 10 μm, frozen), substantia nigra
# T1 sequence (F6SFA9 1-390): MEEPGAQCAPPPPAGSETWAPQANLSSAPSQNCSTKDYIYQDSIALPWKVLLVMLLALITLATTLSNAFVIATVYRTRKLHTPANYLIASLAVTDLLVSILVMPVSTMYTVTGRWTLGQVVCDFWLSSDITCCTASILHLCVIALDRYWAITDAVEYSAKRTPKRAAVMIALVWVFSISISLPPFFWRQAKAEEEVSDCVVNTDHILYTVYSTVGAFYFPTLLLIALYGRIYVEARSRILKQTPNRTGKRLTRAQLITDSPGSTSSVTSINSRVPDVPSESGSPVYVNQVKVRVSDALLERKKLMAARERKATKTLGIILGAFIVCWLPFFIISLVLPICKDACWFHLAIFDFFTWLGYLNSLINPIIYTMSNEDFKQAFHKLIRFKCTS
# Method: A male monkey (Macacca mulatta n.) weighing 8 kg was sacrificed by means of an overdose of barbiturates and exsanguination. […] The right hemisphere is cut out and frozen by isopentane cooled in liquid nitrogen. The block is stored at -20° C. […] They are stored at -20° C. until required.
# Some of the sections are incubated under identical conditions except that the radioactive probe is replaced either with 2 nM [^3 H]5-HT, or with 2 nM [^3 H]5-HT in the presence of 100 nM 8-hydroxy-2-[di-N-propylamino]tetralin (8-OH-DPAT) and 100 nM mesulergin, or with 1 nM [^3 H]8-OH-DPAT. After rinsing 2 x for 1 minute in distilled water, the sections are dried.
# The slides are affixed to a tritium-sensitive film for 8 days. The film is developed for 6 minutes in D19, rinsed and fixed.
# 5-HT1D receptors = assay: Labelling of locus niger in postmortem human brain sections (autoradiography); format: binding
# Method: (§5) The sections are preincubated for 1 h at 4° C. in a Krebs solution (mM: NaCl, 118; KCl, 4.5; CaCl2, 1.2; MgCl2, […]; Tris, 15; pH 7.4) in order to remove the endogenous ligands. They are then incubated at 20° C. for 60 minutes in a solution containing 10^-5 M pargyline, 57 mM ascorbic acid, 10 g/l of bovine serum albumin and 0.02 nM S--CM-G[^125 I]TNH2, alone or in the presence of increasing concentrations of serotonin. Some of the sections are incubated under identical conditions except that the radioactive probe is replaced either with 2 nM [^3 H]5-HT, or with 2 nM [^3 H]5-HT in the presence of 100 nM 8-hydroxy-2-[di-N-propylamino]tetralin (8-OH-DPAT) and 100 nM mesulergin, or with 1 nM [^3 H]8-OH-DPAT. After rinsing 2 x for 1 minute in distilled water, the sections are dried.
# (§6) The slides are affixed to a tritium-sensitive film for 8 days. The film is developed for 6 minutes in D19, rinsed and fixed. The autoradiographs are quantified with a video system for image analysis (Segu et al., 1990).
# (§7) a) Postmortem human brains are stored at -20° C. 10 μm sections are prepared from blocks containing either the locus niger or the Ammon's horn. The sections are treated as indicated in 4. for the monkey brain sections.
# (§8) The locus niger contains virtually exclusively binding sites of the 5-HT1D type, whereas the Ammon's horn is composed predominantly of sites of the 5-HT1A type.
# 5-HT1A sites [7] = assay: Labelling of Ammon's horn in postmortem human brain sections (autoradiography); format: binding; conditions: treated as monkey sections
# Method: as §5, §6, §7, §8
# serotonin receptors = assay: Affinity and selectivity for serotonin receptor sites; format: binding
# [8] = test system: other receptors which are not of the 5-HT type (such as β-adrenergic receptors); assay: Binding to receptors not of the 5-HT type
# [9] = Passage across the blood-brain barrier after intracardiac injection (brain autoradiography); format: in vivo, mice and guinea-pigs; conditions: 10 minutes; for passage across the blood-brain barrier: intracardiac injection, conclusion
# Method: (§9) 2 mice and 2 guinea-pigs are deeply anaesthetized with chloral hydrate (intraperitoneal injection of 0.12 ml of a 35% solution per 100 g of body weight).
# (§10) The mice and guinea-pigs receive intracardiac injections of 200 μl and 1.5 ml, respectively, of S--CM-G[^125 I]TNH2.
# (§11) After 10 minutes, the animals, still under deep anaesthesia, are decapitated and the brains are frozen and stored as indicated in Example 1.
# Sections are prepared and autoradiography is carried out as described in Example 1.
# [10] = Toxicity observed at the injected dose; format: in vivo, mice and guinea-pigs
# Method: as §9, §10, §11
# [11] = Distribution of labelling in vivo with a gamma camera after intravenous injection; conditions: mice
# Method: 2. Study of the distribution of the binding of the derivative S--CM-G[125]TNH2 by visualization in vivo with a gamma camera
# The animals (mice) are anaesthetized and injected intravenously with the derivative S--CM-G[^125 I]TNH2. […] In this latter zone, the labelling is retained for 15 to 20 minutes before slowly disappearing.
structure (smiles),measurement,setting,value
NCCc1c[nH]c2ccc(OCC(=O)NCC(=O)N[C@@H](Cc3ccc(O)c([125I])c3)C(N)=O)cc12 [S--CM-G[^125 I]TNH2],labelling / specific retention on rat brain sections,rat central receptors,retained specifically on rat brain sections
same,"labelling of St, SD and SN","5-HT1B sites; FIG. 5, 0.03 nM",labelled
same,labelling of the striatum,"5-HT1B sites; anterior region, 0.03 nM",labelled
same,marker specificity for 5-HT1B sites,5-HT1B sites; conclusion,specific marker for binding sites with a high affinity for serotonin of the 1B type
same,labelling of the substantia nigra and the dorsal subiculum,"5-HT1B sites; mesencephalic region, 0.03 nM",intense labelling
same,labelling of the hippocampus,5-HT1A sites [1],no labelling
same,labelling of the hippocampus,5-HT1A sites [1]; listed as S-CM-G[^125 I]TNH2,not labelled
same,labelling of the choroid plexus,5-HT1C sites [2],not labelled
same,labelling of the substantia nigra,5-HT1D sites [3]; 0.03 nM,labels the substantia nigra
same,"labelling of St, SD and SN","5-HT1D sites [3]; FIG. 6, 0.03 nM",labelled
same,marker for 5-HT1D sites,5-HT1D sites [3]; conclusion,marker for sites with a high affinity for serotonin of the 1D type
same,labelling of the hippocampus,5-HT1A sites [4]; listed as S--CM-G[^125I]TNH2,not the hippocampus
same,labelling of the hippocampus,5-HT1A sites [4]; listed as S-CM-G[^125 I]TNH2,not labelled
same,labelling of the choroid plexus,5-HT1C sites [5],not labelled
same,labelling of the substantia nigra,5-HT1D sites [6]; 0.02 nM S-CM-G[125I]TNH2,virtually exclusive labelling of the substantia nigra
same,labelling of the substantia nigra,"5-HT1D sites [6]; 0.02 nM S-CM-G[125I]TNH2, listed as [^125 I]S-CM-GTNH2",exclusive labelling of the substantia nigra
same,binding to / marker for 5-HT1D sites,5-HT1D sites [6],marker for 5-HT1D receptors
same,binding to / marker for 5-HT1D sites,5-HT1D sites [6]; listed as S--CM-G[^125 I9 TNH2,specific for the 5-HT1D sites
same,binding to / marker for 5-HT1D sites,5-HT1D sites [6]; listed as S--CM-G[^125 I ]TNH2,binds to the 5-HT1D sites
same,labelling of 5-HT1D receptors of the human brain in vitro,5-HT1D receptors; conclusion,labels the 5-HT1D receptors of the human brain in vitro
same,labelling of the locus niger,"5-HT1D receptors; postmortem, treated as monkey sections",strong labelling
same,labelling of the Ammon's horn,5-HT1A sites [7],weak labelling
same,preferential affinity among 5-HT1 sites,serotonin receptors; 5-HT1B and 5-HT1D vs 5-HT1A and 5-HT1C,preferential affinity for the 5-HT1B and 5-HT1D sites compared with the 5-HT1A and 5-HT1C sites
same,ligand labelling of the 5-HT1D sites,serotonin receptors; compared with other ligands,only ligand to label the 5-HT1D sites
same,selectivity vs receptors not of the 5-HT type,[8],high selectivity without binding to other receptors which are not of the 5-HT type
same,labelling of brain sections after in vivo injection,"[9]; intracardiac injection (mice 200 μl, guinea-pigs 1.5 ml)",no labelling
same,passage across the blood-brain barrier,[9],does not cross the blood-brain barrier
same,passage across the blood-brain barrier,[9]; listed as S--CM-G[125]TNH2,does not pass through the blood-brain barrier
same,toxicity,[10],No toxicity was observed
same,labelling of the vascular system 10 minutes after the injection,[11]; 10 minutes,"the labelling decreases in the vascular system, except for the heart and the cerebral vascular system"
same,initial distribution of labelling,[11]; gamma camera,"very quickly observed to diffuse into the heart, the entire vascular system and the liver"
same,labelling of the bladder,[11]; longer term,increases in the longer term
same,labelling of the heart,[11]; longer term,remaining labelled for a fairly long time
